In BigSolDB 2.1:

CCc1cccc2c3c([nH]c12)C(CC)(CC(=O)O)OCC3 (stereo unspecified)
solubility (mole fraction)
Conditions	278.15 K	283.15 K	288.15 K	293.15 K	298.15 K	303.15 K	308.15 K	313.15 K	318.15 K	323.15 K
in acetone	0.0935	0.101	0.109	0.117	0.127	0.136	0.147	0.157	0.168	0.178
in dichloromethane	0.00979	0.0124	0.0155	0.019	0.0229	0.0271	–	–	–	–
in isobutanol	0.0224	0.0265	0.0316	0.0382	0.0476	0.0594	0.0707	0.086	0.104	0.123
in isobutyl acetate	0.0428	0.0475	0.0529	0.0584	0.0649	0.07	0.0774	0.0861	0.0959	0.108
in isopentyl acetate	0.0413	0.0457	0.0509	0.0563	0.0629	0.068	0.0758	0.084	0.0944	0.105
in isopropanol	0.0267	0.0307	0.0363	0.0444	0.0547	0.0669	0.078	0.0907	0.109	0.127
in methyl acetate	0.0464	0.0519	0.0578	0.0638	0.0687	0.0769	0.0834	0.0921	0.101	0.111
in n-butanol	0.0371	0.0422	0.0485	0.0573	0.0675	0.078	0.0873	0.0994	0.117	0.135
in n-butyl acetate	0.0455	0.0507	0.0563	0.0627	0.0682	0.0748	0.0825	0.0915	0.101	0.111
in n-pentyl acetate	0.0453	0.0503	0.0558	0.0621	0.0666	0.0738	0.0803	0.0892	0.0983	0.108
in n-propanol	0.0342	0.0391	0.0452	0.0548	0.0648	0.0751	0.0849	0.0969	0.114	0.131
in toluene	0.00117	0.00147	0.0019	0.0024	0.00316	0.00394	0.00501	0.0065	0.00838	0.0108
